Results taken from US20150080380A1, “Therapeutic Uses” (GLAXOSMITHKLINE INTELLECTUAL PROPERTY DEVELOPMENT LIMITED, priority 2012, published 2015).

How the values were obtained:
[1] = biological target: T1, human recombinant H3 receptor (Homo sapiens, UniProt Q9Y5N1); experiment: GTPγS binding assay (basal binding, HEK-293-GαO membranes); type: biochemical; conditions: 100 nM-0.001 nM, absence of H3R agonist, 3 independent experiments; read-out: pEC50, inhibition of basal GTPγS binding (converted)
T1 construct: host or cells: HEK-293-GαO cells transduced with BacMam virus; membranes prepared
Protocol: The effect of Example compound 1 on basal GTPγS binding to the H3R receptor was determined in the GTPγS binding assay.
Human embryonic kidney 293 cells stably expressing G protein GαO (HEK-293-GO) were maintained in minimum essential medium (MEM) supplemented with Earle's salts, 2 mM L-glutamine, […] geneticin and 10% foetal bovine serum at 37-8° C., 5% CO2 in a humidified environment. Exponentially growing cells were infected with BacMam virus encoding the human recombinant H3 receptor (Biocat: Virus 96801) as follows. Cells were detached from flasks in PBS and collected by centrifugation at 200×g for 5 min at room temperature. […]
Cell membranes were diluted to ˜1 mg/ml in assay buffer (20 mM HEPES, 100 mM NaCl, 10 mM MgCl2, pH 7.4) and incubated with wheat germ agglutinin scintillation proximity assay (SPA) beads (Amersham Biosciences) for 45 min, after which GDP ([…]) was added. […] Non-specific binding was determined by the inclusion of 0.6 mM GTPγS. […] Filters were washed twice with 4 ml ice-cold water and bound […] on the filters was measured by scintillation counting on a Wallac 1450 Microbeta Trilux counter.
The data was analyzed and presented as fold change of the number of the vehicle control well (DMSO). […]

[2] = test system: remyelination in cuprizone/rapamycin-induced demyelination; experiment: Mouse cuprizone/rapamycin-induced demyelination model (Black-gold II staining); type: in vivo, C57BL/6 mice; conditions: 30 mg/kg orally b.i.d. 9 days, n=7, P<0.05
Protocol: The ability of Example compound 2 to enhance in vivo remyelination was determined with the mouse cuprizone/rapamycin-induced demyelination model.
The cuprizone plus rapamycin model was conducted with the protocol as follows: rapamycin was dissolved in 100% ethanol and stored at −20° C. until use. Immediately before injection, the rapamycin was diluted in vehicle solution to get a final concentration in 5% PEG-400, 5% Tween 80, and 4% ethanol. The C57BL/6 mice at age of 8 weeks were fed with powder mouse food mixed freshly with 0.2% cuprizone (w/w) and received daily intraperitoneal injection of rapamycin (10 mg/kg body weight) for 5 weeks to induce demyelination, then animals were allowed to recover (removal of cuprizone from the diet and rapamycin injection) and administrated with Example compound 2, at 30 mg/kg body weight orally, b.i.d. for an additional 9 days prior to sacrifice. The brain samples were collected for pathologic analysis. […]
Mice were deeply anesthetized and quickly perfused with 0.9% saline via the left cardiac ventricle to drain out blood. […] The sections were monitored to determine the extent of staining. […]
Image-Pro 6.3 software (Media Cybernetics, USA) was used for subsequent quantitative evaluation. […] For measurement of mean density, areas and IOD in central corpus callosum or cortex were calculated after all digital images were set under the same colour range. […]

T1 sequence (Q9Y5N1 whole entry): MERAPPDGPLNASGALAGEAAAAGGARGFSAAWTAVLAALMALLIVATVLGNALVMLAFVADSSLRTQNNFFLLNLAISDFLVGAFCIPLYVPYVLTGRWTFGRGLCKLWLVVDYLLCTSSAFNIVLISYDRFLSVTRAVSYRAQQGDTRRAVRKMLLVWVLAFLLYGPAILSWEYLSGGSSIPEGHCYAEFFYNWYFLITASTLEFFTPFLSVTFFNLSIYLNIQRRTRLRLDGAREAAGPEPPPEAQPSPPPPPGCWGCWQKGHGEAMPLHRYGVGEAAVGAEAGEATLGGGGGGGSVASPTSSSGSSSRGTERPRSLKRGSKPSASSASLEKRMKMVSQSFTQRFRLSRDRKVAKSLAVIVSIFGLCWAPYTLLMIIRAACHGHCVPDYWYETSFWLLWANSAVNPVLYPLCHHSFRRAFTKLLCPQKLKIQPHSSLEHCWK

Row | EC50 [1] [nM] | Structure (SMILES) | mean intensity of Black-gold II staining, forebrain corpus callosum ([2]; vehicle 14.65%) [%] | mean intensity of Black-gold II staining, forebrain cortex ([2]; vehicle 40.79%) [%]
1 | 0.112 | O=C1CCCN1c1ccc(Oc2ccc3c(c2)CCN(C2CCC2)CC3)nc1 [Example compound 1, 1-{6-[(3-cyclobutyl-2,3,4,5-tetrahydro-1H-3-benzazepin-7-yl)oxy]-3-pyridinyl}-2-pyrrolidinone] | – | –
2 | – | c1cc2c(cc1-c1noc(CC3CCN(C4CCC4)CC3)n1)OCO2 [Example compound 2, 3-(benzo[d][1,3]dioxol-5-yl)-5-((1-cyclobutylpiperidin-4-yl)methyl)-1,2,4-oxadiazole] | 27.68±5.44 | 60.05±6.28
